Test results: patent US20140073637A1, “AMINO-SUBSTITUTED-ALKYLOXY-BENZO[E]PYRIDO[4,3-B]INDOLE DERIVATIVES AS NEW POTENT KINASE INHIBITORS” (INSTITUT CURIE, priority 2011, published 2014)
Where two headings read alike, the source gives them in different places.

Legend:
[1] = target: Aurora B (Homo sapiens, UniProt Q96GD4); assay: Kinase profiling in vitro at 1 μM; format: biochemical
Description: (§1) The specificity of C14 was tested, in vitro, against 121 kinases representative of the kinome. Assays run in duplicate, at the concentration of 1 μM, were performed by MRC (Dundee, UK). Results are represented in FIG. 1. The main targets are highlighted in FIG. 1B.
(§2) In addition, the percentage of remaining activity of recombinant kinases Aurora kinases A and B and Checkpoint kinases 1 and 2 at the concentration of 1 μM of C1, C2 and C14 have been determined.
(§3) The profiling was performed at the MRC (Dundee University), in duplicate, on a set of 121 kinases. The panel is representative of the major different classes of kinases. Compounds were used at the concentration of 1 μM. In vitro, IC50 were determined on recombinant kinases by Reaction biology Corp (USA).

[2] = target: T1, CHK1 (Homo sapiens, UniProt O14757); assay: Kinase profiling in vitro at 1 μM; format: biochemical
T1 sequence (O14757 1-476): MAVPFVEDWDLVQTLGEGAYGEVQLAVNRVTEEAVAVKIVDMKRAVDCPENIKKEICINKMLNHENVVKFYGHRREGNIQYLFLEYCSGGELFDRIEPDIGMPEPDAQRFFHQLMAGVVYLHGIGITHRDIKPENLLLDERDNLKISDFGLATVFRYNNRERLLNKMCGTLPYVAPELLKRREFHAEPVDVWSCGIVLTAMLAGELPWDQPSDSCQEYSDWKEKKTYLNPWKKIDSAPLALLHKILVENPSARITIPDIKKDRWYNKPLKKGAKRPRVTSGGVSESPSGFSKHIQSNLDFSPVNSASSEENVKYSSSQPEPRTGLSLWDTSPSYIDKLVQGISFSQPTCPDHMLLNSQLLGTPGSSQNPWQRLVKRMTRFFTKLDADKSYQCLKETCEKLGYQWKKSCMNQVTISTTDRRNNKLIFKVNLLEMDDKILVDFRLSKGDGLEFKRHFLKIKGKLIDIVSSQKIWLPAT
Description: as §1, §2, §3

[3] = target: Chk2 (Homo sapiens, UniProt O96017); assay: Kinase profiling in vitro at 1 μM; format: biochemical
Description: as §1, §2, §3

[4] = test system: Hek cells stably expressing tubulin-GFP; assay: Time-lapse of Hek cells expressing tubulin-GFP; format: cell-based; conditions: 0.5 μM; continuous imaging
Description: Mitotic Hek cells stably expressing tubulin-GFP were continuously imaged and representative of either control or treated cells (C14 and C1, 0.5 μM) are shown. Elapse times are indicated on each photo.
Mitotic Hek cells stably expressing tubulin-GFP were continuously imaged and representative of either control or treated cells (C14 and C1, 0.5 μM) are shown (FIG. 8). Elapse times are indicated on each photo. In the control as well as in the presence of C1 the mitotic spindle is organized (24 min and To respectively) whereas in the presence of C14, the two poles are only connected by few microtubules (97 min and 130 min). Finally, in the presence of C14, cells escape from mitosis and cytoplasmic microtubules are observed (159 min and 212 min). Note that a duplication of the spindle occurs upon C1 treatment (106 min)

[5] = test system: H322; assay: Cell viability test (CellTiter 96 AQueous One Solution); format: cell-based; conditions: NCI-H322; H322 (Lung); 72 h of treatment; read-out: IC50 (cell line viability)
Description: (§4) H358, H322 (lung cancer cells), U373 (glioblastomes) and HeLa ([…]) were grown in DMEM (1.5 g/L glucose) whereas HL60 (human myeloid cell line) cells were in RPMI 1640. U2OS (a human osteosarcoma cell line) cells were cultured in McCoy's Medium 5 A and liver cells (SK Hep 1) in DMEM (4 g/L glucose, (Gibco-Invitrogen). Media (Gibco-Invitrogen), were supplemented with 10% heat-inactivated foetal bovine serum (Gibco-Invitrogen), L-glutamine (2 mM), penicillin (100 UI/ml) and streptomycin (100 μg/ml).
(§5) Cell proliferation assays were conducted in 96 well culture plates. Assays were run in triplicate. Cell viability was estimated upon 72 h of treatment with varying concentrations of compound by addition of CellTiter 96Queous one Solution Reagent (Promega) directly to culture wells under conditions defined by the manufacturer.

[6] = test system: SkHep1; assay: as above; format: cell-based; conditions: Homo sapiens, SK-HEP1; SkHep1 (Liver cells); 72 h of treatment; read-out: IC50 (cell line viability)
Description: as §4, §5

[7] = target: T2, NUAK1 (Homo sapiens, UniProt O60285); assay: In vitro IC50 on recombinant kinase; format: biochemical
T2 construct: Reaction biology Corp (USA), service
T2 sequence (O60285 1-661): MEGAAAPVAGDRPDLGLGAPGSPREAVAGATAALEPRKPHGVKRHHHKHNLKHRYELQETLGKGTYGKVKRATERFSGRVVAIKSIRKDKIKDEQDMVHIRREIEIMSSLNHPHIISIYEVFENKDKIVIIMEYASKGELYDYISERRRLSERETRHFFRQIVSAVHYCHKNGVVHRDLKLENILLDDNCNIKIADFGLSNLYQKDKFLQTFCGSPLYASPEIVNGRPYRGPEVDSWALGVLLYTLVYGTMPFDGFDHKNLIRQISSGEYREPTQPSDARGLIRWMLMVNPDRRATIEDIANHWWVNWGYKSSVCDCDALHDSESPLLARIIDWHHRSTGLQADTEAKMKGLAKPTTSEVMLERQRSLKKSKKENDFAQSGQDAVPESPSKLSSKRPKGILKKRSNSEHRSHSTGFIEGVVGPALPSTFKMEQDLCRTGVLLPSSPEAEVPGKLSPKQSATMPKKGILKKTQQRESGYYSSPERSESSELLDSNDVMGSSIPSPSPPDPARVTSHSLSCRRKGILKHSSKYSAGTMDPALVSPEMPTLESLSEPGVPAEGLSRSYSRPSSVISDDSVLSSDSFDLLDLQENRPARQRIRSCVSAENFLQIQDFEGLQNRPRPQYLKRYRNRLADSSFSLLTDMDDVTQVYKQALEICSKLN
Description: The efficiency of the 3-amino-ethoxy compounds to inhibit Nuak1 was determined in vitro.
as §3

[8] = Water solubility; format: physicochemical
[9] = compound at 1 μM, read-out: percentage of remaining activity of recombinant kinase
[10] = Chk1, compound at 1 μM, read-out: percentage of remaining activity of recombinant kinase
[11] = 1 microMolar in vitro, read-out: Percent of remaining activity

Chain of Aurora B (Q96GD4 whole entry): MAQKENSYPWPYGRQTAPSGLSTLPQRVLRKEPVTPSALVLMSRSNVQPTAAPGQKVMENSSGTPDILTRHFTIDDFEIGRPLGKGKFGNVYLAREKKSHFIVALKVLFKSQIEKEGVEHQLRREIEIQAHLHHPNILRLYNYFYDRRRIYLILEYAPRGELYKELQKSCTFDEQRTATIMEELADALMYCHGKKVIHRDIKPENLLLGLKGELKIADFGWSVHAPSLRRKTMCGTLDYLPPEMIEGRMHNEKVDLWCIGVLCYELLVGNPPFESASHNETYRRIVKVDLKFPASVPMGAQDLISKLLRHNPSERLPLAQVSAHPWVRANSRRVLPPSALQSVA
Chain of Chk2 (O96017 whole entry, species assumed): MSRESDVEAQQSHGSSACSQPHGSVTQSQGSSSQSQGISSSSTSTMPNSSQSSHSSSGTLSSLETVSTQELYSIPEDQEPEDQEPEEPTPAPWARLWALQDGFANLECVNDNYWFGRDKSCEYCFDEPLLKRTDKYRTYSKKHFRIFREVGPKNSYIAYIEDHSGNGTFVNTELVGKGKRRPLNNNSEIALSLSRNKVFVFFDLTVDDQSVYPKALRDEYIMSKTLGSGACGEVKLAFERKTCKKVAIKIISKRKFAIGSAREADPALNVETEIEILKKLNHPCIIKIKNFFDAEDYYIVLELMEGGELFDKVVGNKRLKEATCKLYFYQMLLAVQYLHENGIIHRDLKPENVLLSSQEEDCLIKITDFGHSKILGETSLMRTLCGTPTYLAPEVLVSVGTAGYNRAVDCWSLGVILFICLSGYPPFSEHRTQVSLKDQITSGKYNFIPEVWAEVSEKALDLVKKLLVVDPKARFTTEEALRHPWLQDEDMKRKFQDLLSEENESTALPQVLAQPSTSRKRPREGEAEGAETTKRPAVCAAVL

remaining activity at 1 µM [1, 9]	remaining activity at 1 µM [2, 10]	remaining activity at 1 µM [3, 9]	IC50 [5]	remaining activity at 1 µM [1, 11]	remaining activity at 1 µM ([2]; CHK1, 1 microMolar in vitro, read-out: Percent of remaining activity)	remaining activity at 1 µM [3, 11]	IC50 [7]	solubility in water (in words) [8]	Compound	effect on mitotic spindle (in words) [4]	IC50 [6]
19%	23%	6%							CCc1c[nH]c(=O)c2c1[nH]c1ccc3cc(OC)ccc3c12 [Compound C1, reference compound]	induced its duplication	
			800 nM						Cc1cncc2c1[nH]c1ccc3cc(OCCN(C)C)ccc3c12 [CH21, 3-(2-N,N-dimethylaminoethyloxy)-8-methyl-7H-benzo[e]pyrido(4,3-b)indole]		450 nM
24%	31%	9%	> 4000 nM	24%	31%	9%	1.4 nM	water soluble	Cc1c[nH]c(=O)c2c1[nH]c1ccc3cc(OCCN(C)C)ccc3c12 [Compound C14, 3-(2-N,N-Dimethylaminoethoxy)-8-methyl-7H,10H-benzo[e]pyrido(4,3-b)indol-11-one]	prevented mitotic spindle organization	2000 nM
